How the values were obtained:
PBMC = test: Antiinflammatory activity in human PBMC assessed as inhibition of LPS-induced TNFalpha release treated for 5 mins before LPS challenge measured after 4 hrs by ELISA; format: functional, cell-based
Blood = test: Antiinflammatory activity in human whole blood assessed as inhibition of LPS-induced TNFalpha release treated for 45 mins before LPS challenge measured after 6 hrs by ELISA; format: functional, tissue-based
[1] = target: T1, Inhibitor of nuclear factor kappa-B kinase subunit beta (Homo sapiens, UniProt O14920); test: Inhibition of human IKK2-mediated GST-IkappaBalpha protein fusion phosphorylation
T1 sequence (O14920 whole entry): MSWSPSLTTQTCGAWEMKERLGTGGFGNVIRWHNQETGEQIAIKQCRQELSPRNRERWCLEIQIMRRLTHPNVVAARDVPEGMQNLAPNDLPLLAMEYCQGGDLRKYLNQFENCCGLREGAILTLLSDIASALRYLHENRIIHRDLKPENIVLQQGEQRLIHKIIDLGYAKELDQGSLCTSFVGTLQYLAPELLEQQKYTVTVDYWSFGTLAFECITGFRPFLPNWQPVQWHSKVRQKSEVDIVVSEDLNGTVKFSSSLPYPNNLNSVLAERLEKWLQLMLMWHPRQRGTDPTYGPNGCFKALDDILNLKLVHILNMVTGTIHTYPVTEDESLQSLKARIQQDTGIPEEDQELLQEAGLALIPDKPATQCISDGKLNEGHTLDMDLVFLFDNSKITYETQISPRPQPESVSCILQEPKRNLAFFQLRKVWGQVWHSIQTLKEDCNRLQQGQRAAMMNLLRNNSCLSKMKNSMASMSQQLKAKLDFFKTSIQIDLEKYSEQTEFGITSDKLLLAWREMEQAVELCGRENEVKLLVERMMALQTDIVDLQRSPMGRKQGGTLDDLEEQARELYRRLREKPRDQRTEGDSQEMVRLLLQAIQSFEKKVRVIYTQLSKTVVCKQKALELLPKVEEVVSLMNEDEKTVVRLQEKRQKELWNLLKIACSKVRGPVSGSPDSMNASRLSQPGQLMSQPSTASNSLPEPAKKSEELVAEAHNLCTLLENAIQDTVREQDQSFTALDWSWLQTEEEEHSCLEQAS

[2] = AUC in Lewis rat at 30 mg/kg, po; format: ADME, organism-based; parameters: dose 30 mg/kg, route oral; details: plasma
[3] = Cmax in Lewis rat at 30 mg/kg, po; format: ADME, organism-based; parameters: dose 30 mg/kg, route oral; details: in vivo

SMILES | IC50 (Blood; Homo sapiens, Blood) [µM] | IC50 [1] [nM] | AUC [2] [µM·h] | Cmax [3] [µM] | IC50 (Blood) [µM] | IC50 (PBMC; Homo sapiens, PBMC) [nM] | IC50 (PBMC; pbmc) [nM]
CNc1nc2[nH]c(-c3cccc(CNC(=O)C(C)(C)O)n3)cc2c2c1ncn2C | 3.4 | 12 |  |  |  | 240 | 
CNc1nc2[nH]c(-c3cccc(CNC(=O)CO)n3)cc2c2c1ncn2C | 1.8 | 13 |  |  |  | 530 | 
CNc1nc2[nH]c(-c3cccc(CNC(=O)c4csnn4)n3)cc2c2c1ncn2C | 5.2 | 28 |  |  |  | 230 | 
CNc1nc2[nH]c(-c3cccc(CNC(=O)C4(C)CC4)n3)cc2c2c1ncn2C |  | 41 |  |  |  | 570 | 
CNc1nc2[nH]c(-c3cccc(C(C)NC(C)=O)n3)cc2c2c1ncn2C (single isomer, unassigned) | 1.7 | 16 |  |  |  |  | 680
CNc1nc2[nH]c(-c3cccc(NCCOC)n3)cc2c2c1ncn2C | 6.4 | 20 |  |  |  | 350 | 
CCNc1nc2sc(-c3cccc([C@H](C)NC(C)=O)c3)nc2c2c1ncn2C | 3.5 |  |  |  |  |  | 
CNc1nc2[nH]c(-c3cccc(CN(C)C(=O)COC)n3)cc2c2c1ncn2C | 3.3 | 19 |  |  |  | 350 | 
CNc1nc2[nH]c(-c3cccc(N(C)CCOC)n3)cc2c2c1ncn2C | > 25 | 438 |  |  |  | 1900 | 
CNc1nc2[nH]c(-c3cccc(NC(C)=O)n3)cc2c2c1ncn2C |  | 130 |  |  |  | 1900 | 
CNc1nc2[nH]c(-c3cc(CNC(C)=O)ccn3)cc2c2c1ncn2C |  | 330 |  |  |  |  | 
CNc1nc2[nH]c(-c3cccc(CNC(=O)CCOC)c3)cc2c2c1ncn2C | 7 | 13 | 39 | 7.8 |  |  | 
CNc1nc2[nH]c(-c3cccc(CNC(=O)CCOC)n3)cc2c2c1ncn2C | 3.3 | 12 |  |  |  | 280 | 
CNc1nc2[nH]c(-c3cccc(CNC(=O)C(C)(C)C)n3)cc2c2c1ncn2C | 5.5 | 66 |  |  |  | 310 | 

Second part, led by results:

IC50 (Blood; Homo sapiens, Blood) [µM] | IC50 [1] [nM] | AUC [2] [µM·h] | Cmax [3] [µM] | IC50 (Blood) [µM] | SMILES | IC50 (PBMC; Homo sapiens, PBMC) [nM] | IC50 (PBMC; pbmc) [nM]
1.6 | 19 |  |  |  | CNc1nc2[nH]c(-c3cccc(CNC(C)=O)n3)cc2c2c1ncn2C | 160 | 
1.8 | 5 |  |  |  | CNc1nc2[nH]c(-c3cccc(CNC(=O)CCN(C)C)n3)cc2c2c1ncn2C | 220 | 
3 | 14 |  |  |  | CNc1nc2[nH]c(-c3cccc(CN(C)C(C)=O)n3)cc2c2c1ncn2C | 230 | 
1.7 | 5.7 |  |  |  | CNC(=O)N(C)Cc1cccc(-c2cc3c(nc(NC)c4ncn(C)c43)[nH]2)n1 | 350 | 
15 | 26 |  |  |  | CNc1nc2[nH]c(-c3cccc(CNC(=O)CC(C)C)n3)cc2c2c1ncn2C | 390 | 
7 | 81 |  |  |  | CNc1nc2[nH]c(-c3cccc(C4(NC(C)=O)CC4)n3)cc2c2c1ncn2C | 400 | 
> 25 | 128 |  |  |  | CNc1nc2[nH]c(-c3cccc(N4CCN(C)CC4)n3)cc2c2c1ncn2C | 1500 | 
 | 14 |  |  |  | CNc1nc2[nH]c(-c3cccc(CNC(C)=O)c3)cc2c2c1ncn2C |  | 
5.9 | 33 |  |  |  | CNc1nc2[nH]c(-c3cccc(CNC(=O)C4CC4)n3)cc2c2c1ncn2C | 280 | 
17 | 86 |  |  |  | CNCC(=O)NCc1cccc(-c2cc3c(nc(NC)c4ncn(C)c43)[nH]2)n1 | 130 | 
 | 9 |  |  | 1.6 | CNc1nc2[nH]c(-c3cccc(C(C)NC(C)=O)n3)cc2c2c1ncn2C (single isomer, unassigned; enantiomer 2) |  | 300
6.1 | 44 |  |  |  | CCC(=O)NCc1cccc(-c2cc3c(nc(NC)c4ncn(C)c43)[nH]2)n1 | 700 | 
5.9 | 23 |  |  |  | CNc1nc2[nH]c(-c3cccc(CNC(=O)c4cnccn4)n3)cc2c2c1ncn2C | 290 | 

From ChEMBL document CHEMBL1921674, “Novel tricyclic inhibitors of IKK2: discovery and SAR leading to the identification of 2-methoxy-N-((6-(1-methyl-4-(methylamino)-1,6-dihydroimidazo[4,5-d]pyrrolo[2,3-b]pyridin-7-yl)pyridin-2-yl)methyl)acetamide (BMS-066)” (Bioorg Med Chem Lett, 2011)
